Calls of active or inactive are those of the source.
Assays:
[1] = Luminescence Cell-Based Dose Retest to Confirm Inhibitors of Cancer Stem Cells. [Related pubchem assays (depositor defined):AID2717, AID2721]; format: functional; conditions: Homo sapiens
[2] = M. tuberculosis growth inhibition, HTS (AID 449762); format: functional
[3] = target: Large T antigen (Simian virus 40, UniProt P03070); format: functional, Betapolyomavirus macacae;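 note: Confirmatory-stage PubChem screen for compounds that inhibit SV40 T antigen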
Large T antigen, sequence (P03070 whole entry): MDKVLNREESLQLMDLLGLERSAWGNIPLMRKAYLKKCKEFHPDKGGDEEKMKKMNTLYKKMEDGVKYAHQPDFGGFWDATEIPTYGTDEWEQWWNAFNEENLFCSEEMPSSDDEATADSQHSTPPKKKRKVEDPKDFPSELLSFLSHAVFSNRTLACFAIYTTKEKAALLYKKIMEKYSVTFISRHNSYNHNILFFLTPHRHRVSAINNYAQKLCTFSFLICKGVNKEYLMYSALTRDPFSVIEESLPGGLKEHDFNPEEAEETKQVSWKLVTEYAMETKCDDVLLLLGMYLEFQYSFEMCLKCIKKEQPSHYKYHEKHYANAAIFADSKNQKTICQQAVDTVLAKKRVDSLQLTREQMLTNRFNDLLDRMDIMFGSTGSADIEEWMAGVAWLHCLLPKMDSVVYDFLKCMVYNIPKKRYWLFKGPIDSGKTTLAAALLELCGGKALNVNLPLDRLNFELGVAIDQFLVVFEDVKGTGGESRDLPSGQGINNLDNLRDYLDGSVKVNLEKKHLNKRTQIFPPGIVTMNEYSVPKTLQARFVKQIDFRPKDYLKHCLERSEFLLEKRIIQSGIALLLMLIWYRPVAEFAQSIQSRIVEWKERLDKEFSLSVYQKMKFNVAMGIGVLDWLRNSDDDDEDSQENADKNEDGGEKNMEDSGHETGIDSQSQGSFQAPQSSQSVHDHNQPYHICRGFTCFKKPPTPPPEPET

[4] = target: Bifunctional protein GlmU (Mycobacterium tuberculosis, UniProt P9WMN3); assay: Inhibitors of Mycobacterial Glucosamine-1-phosphate acetyl transferase (GlmU). Secondary screen.; design: species or system Mycobacterium tuberculosis H37Rv
Bifunctional protein GlmU, sequence (P9WMN3 whole entry): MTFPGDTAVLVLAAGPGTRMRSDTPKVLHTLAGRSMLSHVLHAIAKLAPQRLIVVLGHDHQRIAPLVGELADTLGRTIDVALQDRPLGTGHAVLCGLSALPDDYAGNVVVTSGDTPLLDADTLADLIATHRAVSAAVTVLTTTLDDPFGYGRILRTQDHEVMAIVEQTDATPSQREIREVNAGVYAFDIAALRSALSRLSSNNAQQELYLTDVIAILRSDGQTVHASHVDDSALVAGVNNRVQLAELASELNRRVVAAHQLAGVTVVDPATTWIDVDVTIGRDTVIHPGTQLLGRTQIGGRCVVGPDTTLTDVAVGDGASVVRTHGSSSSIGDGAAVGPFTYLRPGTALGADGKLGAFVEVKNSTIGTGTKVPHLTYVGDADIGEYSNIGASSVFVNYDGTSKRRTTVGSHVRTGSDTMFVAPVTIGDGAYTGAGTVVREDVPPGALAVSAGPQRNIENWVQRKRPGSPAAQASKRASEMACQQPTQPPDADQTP

[5] = target: Induced myeloid leukemia cell differentiation protein Mcl-1 (Homo sapiens, UniProt Q07820); format: functional
[6] = target: Eukaryotic translation initiation factor 4E (Mus musculus, UniProt P63073); assay: eIF4E–eIF4G protein interaction inhibitors, dose response, biochemical, TR-FRET (AID 855); format: functional;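 note: potency for disrupting eIF4E binding to eIF4GI seen as loss of FRET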
Eukaryotic translation initiation factor 4E, sequence (P63073 whole entry): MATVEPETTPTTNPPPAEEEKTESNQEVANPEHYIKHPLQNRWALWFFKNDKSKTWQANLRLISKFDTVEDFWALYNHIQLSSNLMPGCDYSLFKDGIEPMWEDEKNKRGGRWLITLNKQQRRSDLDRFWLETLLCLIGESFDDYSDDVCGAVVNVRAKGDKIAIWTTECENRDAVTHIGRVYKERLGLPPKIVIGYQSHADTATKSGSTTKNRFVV

[7] = target: Caspase-6 (Homo sapiens, UniProt P55212); assay: human caspase-6 inhibitors, dose response, biochemical, VEID-R110 fluorescence, cherry-pick (AID 720632)
Caspase-6, sequence (P55212 24-179 limits assumed): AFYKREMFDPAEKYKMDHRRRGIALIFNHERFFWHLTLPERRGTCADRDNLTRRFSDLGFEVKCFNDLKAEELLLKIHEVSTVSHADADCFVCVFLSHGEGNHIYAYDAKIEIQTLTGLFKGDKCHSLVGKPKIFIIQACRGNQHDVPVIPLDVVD
Caspase-6, sequence (P55212 194-293 limits assumed): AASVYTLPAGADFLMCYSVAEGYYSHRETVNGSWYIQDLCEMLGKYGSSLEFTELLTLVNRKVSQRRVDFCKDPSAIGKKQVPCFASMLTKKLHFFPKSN

[8] = Luminescence Cell-Based Dose Confirmation to Identify Activators of 5'UTR Stem-Loop Driven Alpha-Synuclein mRNA Translation in H4 Neuroglioblastoma Cells. [Related pubchem assays: 1829 (Project Summary), 1814 (Primary HTS)]; format: functional
[9] = Luminescence Cell-Based Dose Response to Identify Activators of 5'UTR Stem-Loop Driven Prion Protein mRNA Translation in H4-C Neuroglioblastoma Cells. [Related pubchem assays: 1829 (Project Summary), 1814 (Primary HTS)]; format: functional
[10] = Luminescence Cell-Based Dose Response to Identify Activators of Luciferase Translation or Activity in H4-C Neuroglioblastoma Cells. [Related pubchem assays: 1829 (Project Summary), 1814 (Primary HTS)]; format: functional
[11] = target: T1, Zinc finger protein mex-5 (Caenorhabditis elegans, UniProt Q9XUB2); assay: MEX-5/TCR-2 RNA interaction inhibitors, dose response, biochemical, C. elegans, fluorescence polarization (AID 1960)
T1 sequence (Q9XUB2 whole entry): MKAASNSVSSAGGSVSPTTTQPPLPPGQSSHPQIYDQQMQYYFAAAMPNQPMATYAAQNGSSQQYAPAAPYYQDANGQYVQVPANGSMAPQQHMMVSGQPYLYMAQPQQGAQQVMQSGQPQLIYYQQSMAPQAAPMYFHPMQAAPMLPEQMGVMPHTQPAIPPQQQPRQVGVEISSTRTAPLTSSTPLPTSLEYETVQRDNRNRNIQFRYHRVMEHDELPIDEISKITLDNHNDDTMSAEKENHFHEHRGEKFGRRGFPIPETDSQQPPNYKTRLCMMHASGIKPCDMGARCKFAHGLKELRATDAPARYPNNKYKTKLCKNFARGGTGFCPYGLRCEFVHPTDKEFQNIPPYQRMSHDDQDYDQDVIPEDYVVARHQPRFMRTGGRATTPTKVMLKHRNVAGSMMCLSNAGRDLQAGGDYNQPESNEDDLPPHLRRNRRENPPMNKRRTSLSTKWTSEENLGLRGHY

[12] = target: T2, RNA-binding protein pos-1 (Caenorhabditis elegans, UniProt G5EF15); assay: inhibitors of POS-1/mex-3 RNA binding, dose response, biochemical, fluorescence polarization (AID 1964);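 note: purified POS-1 fused to maltose binding protein made in E. coli; potency of compounds blocking POS-1 binding to fluorescent RNA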
T2 sequence (G5EF15 whole entry): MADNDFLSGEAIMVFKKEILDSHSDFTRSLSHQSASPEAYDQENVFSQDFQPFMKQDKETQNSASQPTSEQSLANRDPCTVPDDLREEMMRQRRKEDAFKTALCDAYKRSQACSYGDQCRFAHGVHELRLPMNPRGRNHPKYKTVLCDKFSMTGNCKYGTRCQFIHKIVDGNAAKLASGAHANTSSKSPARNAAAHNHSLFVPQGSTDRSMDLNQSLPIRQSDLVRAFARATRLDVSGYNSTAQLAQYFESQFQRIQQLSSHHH

[13] = target: Ras and Rab interactor 1/Tyrosine-protein kinase ABL1 (Homo sapiens, UniProt P00519+Q13671); format: functional;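 note: biochemical TR-FRET dose-response test measuring inhibition of binding between Rin1 and Abl proteins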
[14] = target: Genome polyprotein (dengue virus type 2, UniProt P29990); assay: Dengue-2 NS5 methyltransferase inhibitors, primary screen, biochemical, confirmation dose response (AID 588689); format: functional
[15] = target: G-protein coupled receptor 183 (Homo sapiens, UniProt P32249); assay: SAR confirmation of small molecule antagonists of the EBI2 receptor via a luminescent beta-arrestin assa.; format: functional
G-protein coupled receptor 183, sequence (P32249 whole entry): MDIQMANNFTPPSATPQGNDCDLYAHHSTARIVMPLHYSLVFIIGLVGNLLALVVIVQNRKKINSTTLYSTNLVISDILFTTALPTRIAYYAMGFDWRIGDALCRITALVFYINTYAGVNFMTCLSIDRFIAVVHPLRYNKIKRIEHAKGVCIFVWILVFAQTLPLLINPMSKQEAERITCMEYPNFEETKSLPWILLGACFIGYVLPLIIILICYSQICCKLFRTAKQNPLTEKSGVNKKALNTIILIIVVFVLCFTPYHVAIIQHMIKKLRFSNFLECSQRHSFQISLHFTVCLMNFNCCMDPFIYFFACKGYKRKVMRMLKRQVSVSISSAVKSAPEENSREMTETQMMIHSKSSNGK

[16] = target: Cytochrome P450 2C9 (Homo sapiens, UniProt P11712)
Cytochrome P450 2C9, sequence (P11712 whole entry): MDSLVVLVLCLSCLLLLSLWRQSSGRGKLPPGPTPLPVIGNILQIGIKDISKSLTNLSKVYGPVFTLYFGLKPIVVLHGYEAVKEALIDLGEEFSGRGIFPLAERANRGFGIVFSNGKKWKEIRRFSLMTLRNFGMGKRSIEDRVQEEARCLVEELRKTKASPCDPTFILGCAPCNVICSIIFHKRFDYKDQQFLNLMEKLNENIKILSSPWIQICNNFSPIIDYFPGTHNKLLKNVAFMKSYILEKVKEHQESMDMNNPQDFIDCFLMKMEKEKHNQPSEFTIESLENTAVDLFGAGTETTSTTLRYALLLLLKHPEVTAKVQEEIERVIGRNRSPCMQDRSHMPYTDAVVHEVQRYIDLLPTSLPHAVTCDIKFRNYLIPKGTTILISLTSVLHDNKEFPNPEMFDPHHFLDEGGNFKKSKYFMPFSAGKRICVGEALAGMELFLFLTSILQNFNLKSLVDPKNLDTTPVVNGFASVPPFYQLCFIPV

[17] = target: Mitogen-activated protein kinase 10 (Homo sapiens, UniProt P53779); assay: Dose response biochemical screening assay for inhibitors of c-Jun N-Terminal Kinase 3 (JNK3). [Related pubchem assays: 746 ]
Mitogen-activated protein kinase 10, sequence (P53779 whole entry): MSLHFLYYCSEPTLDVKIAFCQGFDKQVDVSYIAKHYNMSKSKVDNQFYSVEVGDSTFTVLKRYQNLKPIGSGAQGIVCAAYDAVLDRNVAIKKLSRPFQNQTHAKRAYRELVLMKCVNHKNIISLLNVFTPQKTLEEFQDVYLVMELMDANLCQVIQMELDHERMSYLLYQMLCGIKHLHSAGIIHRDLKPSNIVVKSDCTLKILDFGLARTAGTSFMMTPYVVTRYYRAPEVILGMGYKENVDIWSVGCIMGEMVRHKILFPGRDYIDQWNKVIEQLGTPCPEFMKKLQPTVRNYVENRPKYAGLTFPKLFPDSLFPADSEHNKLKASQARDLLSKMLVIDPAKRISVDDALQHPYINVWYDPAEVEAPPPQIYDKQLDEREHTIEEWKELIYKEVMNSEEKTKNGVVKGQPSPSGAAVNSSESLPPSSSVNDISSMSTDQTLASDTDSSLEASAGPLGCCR

[18] = target: RNA-editing ligase 1, mitochondrial (Trypanosoma brucei brucei, UniProt P86926); assay: TbREL1 ligase inhibitors, dose response, biochemical, fluorescence, Trypanosoma brucei (AID 1117295); format: functional
RNA-editing ligase 1, mitochondrial, sequence (P86926 whole entry): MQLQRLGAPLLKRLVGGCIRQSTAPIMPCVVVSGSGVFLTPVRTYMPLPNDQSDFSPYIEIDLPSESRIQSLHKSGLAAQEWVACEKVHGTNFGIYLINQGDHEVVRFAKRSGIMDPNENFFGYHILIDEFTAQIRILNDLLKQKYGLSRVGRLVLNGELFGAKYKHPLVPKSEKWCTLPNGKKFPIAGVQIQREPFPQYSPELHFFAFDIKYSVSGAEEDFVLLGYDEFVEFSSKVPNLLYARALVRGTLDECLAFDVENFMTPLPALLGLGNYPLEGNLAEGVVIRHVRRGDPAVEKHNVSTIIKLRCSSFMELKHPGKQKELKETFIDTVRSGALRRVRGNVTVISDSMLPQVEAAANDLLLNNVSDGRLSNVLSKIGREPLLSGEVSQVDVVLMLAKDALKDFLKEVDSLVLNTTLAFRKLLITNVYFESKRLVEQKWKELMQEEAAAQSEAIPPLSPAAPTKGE

[19] = target: Kallikrein-7 (Homo sapiens, UniProt P49862); assay: Fluorescence Intensity-based biochemical primary high throughput dose response assay to identify activators of kallikrein-7 (K7) zymogen.
Kallikrein-7, sequence (P49862 whole entry): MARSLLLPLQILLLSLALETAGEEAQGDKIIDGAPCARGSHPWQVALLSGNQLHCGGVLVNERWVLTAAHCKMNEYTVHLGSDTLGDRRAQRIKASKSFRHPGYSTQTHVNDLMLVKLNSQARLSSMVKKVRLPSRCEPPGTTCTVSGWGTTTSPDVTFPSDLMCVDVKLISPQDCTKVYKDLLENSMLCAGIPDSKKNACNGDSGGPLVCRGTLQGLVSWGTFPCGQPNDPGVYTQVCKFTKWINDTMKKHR

[20] = target: Ephrin type-A receptor 4 (Mus musculus, UniProt Q03137); assay: inhibitors of EphA4 binding to KYL peptide, primary screen, biochemical, colorimetric, mouse EphA4 (AID 689); format: functional
Ephrin type-A receptor 4, sequence (Q03137 whole entry): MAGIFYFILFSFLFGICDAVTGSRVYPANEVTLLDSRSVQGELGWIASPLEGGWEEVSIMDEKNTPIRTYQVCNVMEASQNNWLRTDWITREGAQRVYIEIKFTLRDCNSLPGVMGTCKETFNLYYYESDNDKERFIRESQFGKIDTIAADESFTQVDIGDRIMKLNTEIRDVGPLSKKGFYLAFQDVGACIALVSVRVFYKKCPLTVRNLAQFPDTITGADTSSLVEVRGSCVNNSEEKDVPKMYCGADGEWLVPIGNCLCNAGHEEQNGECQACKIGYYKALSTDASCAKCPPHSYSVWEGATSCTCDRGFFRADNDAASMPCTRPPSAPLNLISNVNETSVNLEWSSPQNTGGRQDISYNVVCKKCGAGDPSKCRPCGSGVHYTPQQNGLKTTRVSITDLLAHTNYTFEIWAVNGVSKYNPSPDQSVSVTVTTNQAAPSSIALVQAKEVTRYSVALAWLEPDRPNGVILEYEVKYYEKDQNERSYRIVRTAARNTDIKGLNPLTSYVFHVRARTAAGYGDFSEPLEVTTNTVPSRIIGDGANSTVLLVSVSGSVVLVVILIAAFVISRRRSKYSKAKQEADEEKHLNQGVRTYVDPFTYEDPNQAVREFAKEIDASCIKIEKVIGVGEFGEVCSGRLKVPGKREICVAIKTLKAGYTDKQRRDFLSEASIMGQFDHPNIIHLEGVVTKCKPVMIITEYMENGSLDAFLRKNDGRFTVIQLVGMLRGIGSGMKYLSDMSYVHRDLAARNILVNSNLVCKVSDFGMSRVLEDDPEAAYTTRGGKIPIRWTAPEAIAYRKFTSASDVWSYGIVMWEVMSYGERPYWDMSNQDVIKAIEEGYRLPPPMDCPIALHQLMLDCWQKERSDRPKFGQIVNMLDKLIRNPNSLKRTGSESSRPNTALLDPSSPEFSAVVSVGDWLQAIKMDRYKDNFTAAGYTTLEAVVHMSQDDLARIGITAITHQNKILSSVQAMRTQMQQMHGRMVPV

[21] = cytotoxicity toward NIH3T3 fibroblasts, dose response, counter-screen, cell-based, ATP luminescence, mouse fibroblasts (AID 2010); format: functional;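 note: cells exposed to compound for about 90 hours before reading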
[22] = inhibitors of intracellular T. cruzi replication, confirmation, NIH3T3 host cells, beta-gal luminescence (AID 2044); format: functional, cell-based;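 note: intracellular parasites grown in NIH/3T3 mouse fibroblasts as host cells; luminescent beta-galactosidase reporter signal from transgenic T. cruzi replicating inside host cells; inhibitors lower the luminescence signal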
[23] = target: T3, Heat shock factor protein 1 (Mus musculus, UniProt P38532); assay: inhibition of MG132-induced HSE-luciferase signal, confirmation, cell-based, NIH3T3, luminescence, dose retest (AID 2382); format: functional;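 note: NIH3T3 fibroblasts with HSF1-driven luciferase reporter stressed by proteasome inhibitor MG132; luminescence from HSF1-driven luciferase expression after 8 hours of MG132 stress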
T3 sequence (P38532 whole entry): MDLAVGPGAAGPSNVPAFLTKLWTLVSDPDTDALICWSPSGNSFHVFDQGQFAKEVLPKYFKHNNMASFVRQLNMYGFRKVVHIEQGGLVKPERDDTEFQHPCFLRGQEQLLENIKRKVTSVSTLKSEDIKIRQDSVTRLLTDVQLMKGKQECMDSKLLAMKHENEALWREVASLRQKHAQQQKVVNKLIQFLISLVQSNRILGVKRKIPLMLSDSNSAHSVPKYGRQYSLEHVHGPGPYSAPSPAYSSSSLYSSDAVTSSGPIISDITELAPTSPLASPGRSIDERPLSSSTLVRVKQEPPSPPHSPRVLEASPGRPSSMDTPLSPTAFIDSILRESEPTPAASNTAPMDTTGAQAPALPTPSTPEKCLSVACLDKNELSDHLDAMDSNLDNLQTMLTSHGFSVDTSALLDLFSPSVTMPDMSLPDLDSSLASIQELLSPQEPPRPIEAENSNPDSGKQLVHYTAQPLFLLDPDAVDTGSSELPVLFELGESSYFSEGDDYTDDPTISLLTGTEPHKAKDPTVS

[24] = A549 cell cytotoxicity, dose response, cytotoxicity control, plate reader, cherry-pick, antagonist series (AID 743412); format: functional, cell-based
[25] = HepG2 cell cytotoxicity, dose response, cytotoxicity control, plate reader, cherry-pick, antagonist series (AID 743416); format: functional, cell-based
[26] = HEK293 cell cytotoxicity, dose response, cytotoxicity control, plate reader, cherry-picked samples (AID 743446); format: functional, cell-based
[27] = Luminescence Cell-Based Dose Response HTS to Identify Activators of Luciferase Translation or Activity in H4 […] Cells. [Related pubchem assays: 1829 (Project Summary), 1814 (Primary HTS)]; format: functional
[28] = system: H4; assay: Luminescence Cell-Based Dose Response HTS to Identify Activators of 5'UTR Stem-Loop Driven Prion Protein mRNA Translation in H4 Neuroglioblastoma Cells. [Related pubchem assays: 1829 (Project Summary), 1814 (Primary HTS)]; format: functional; conditions: Homo sapiens
[29] = target: T4, Microphthalmia-associated transcription factor (Homo sapiens, UniProt O75030); assay: TRPM1 promoter luciferase signal decrease, dose response, MITF inhibitor project, cell-based, SK-MEL-5, cherry-picked, set 3 (AID 493073); format: functional
T4 sequence (O75030 whole entry): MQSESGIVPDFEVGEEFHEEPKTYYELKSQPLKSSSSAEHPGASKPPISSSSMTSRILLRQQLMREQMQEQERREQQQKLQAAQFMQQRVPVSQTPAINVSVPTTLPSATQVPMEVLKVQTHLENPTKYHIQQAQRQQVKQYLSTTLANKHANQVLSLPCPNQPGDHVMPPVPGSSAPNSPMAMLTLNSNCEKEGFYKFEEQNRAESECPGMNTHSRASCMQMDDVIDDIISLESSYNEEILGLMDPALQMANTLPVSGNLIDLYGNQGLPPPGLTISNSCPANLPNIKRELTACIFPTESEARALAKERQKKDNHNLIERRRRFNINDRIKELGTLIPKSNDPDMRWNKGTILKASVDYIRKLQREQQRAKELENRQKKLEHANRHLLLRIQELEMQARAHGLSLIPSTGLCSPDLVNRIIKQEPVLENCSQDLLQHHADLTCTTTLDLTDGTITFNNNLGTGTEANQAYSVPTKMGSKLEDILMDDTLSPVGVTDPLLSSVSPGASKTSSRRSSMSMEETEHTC

[30] = target: Cytochrome P450 3A4 (Homo sapiens, UniProt P08684);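 note: CYP3A4 tested as one member of a cytochrome P450 panel screen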
[31] = target: T5, Cytochrome P450 1A2 (Homo sapiens, UniProt P05177);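 note: PubChem cytochrome P450 panel assay, CYP1A2 panel member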
T5 sequence (P05177 whole entry): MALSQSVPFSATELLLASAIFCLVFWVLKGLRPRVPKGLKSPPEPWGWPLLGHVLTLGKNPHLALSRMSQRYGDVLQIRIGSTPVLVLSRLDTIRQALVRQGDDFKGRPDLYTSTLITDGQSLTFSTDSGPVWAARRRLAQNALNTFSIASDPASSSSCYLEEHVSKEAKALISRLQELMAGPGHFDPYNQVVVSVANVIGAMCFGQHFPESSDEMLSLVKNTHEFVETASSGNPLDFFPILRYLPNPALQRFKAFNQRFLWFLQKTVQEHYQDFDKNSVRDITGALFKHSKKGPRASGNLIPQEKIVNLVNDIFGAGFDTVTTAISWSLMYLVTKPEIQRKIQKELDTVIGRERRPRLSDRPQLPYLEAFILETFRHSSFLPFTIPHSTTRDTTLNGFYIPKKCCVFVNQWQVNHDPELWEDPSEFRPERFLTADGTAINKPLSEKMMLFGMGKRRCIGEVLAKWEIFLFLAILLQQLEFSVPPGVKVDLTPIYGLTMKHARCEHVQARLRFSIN

## CCCCCCSc1nsc(NC(=O)CC(C)C)n1
[1]
  AC50: 2.02 µM (active)
[2]
  IC50: > 100 µM (active)

## Nc1ccc2c(c1)Cc1ccccc1-2
[3]
  IC50: 3.52 µM (active)
[2]
  IC50: > 100 µM (active)

## O=C1C(=Cc2ccc(Br)o2)C(=O)c2ccccc21
[3]
  IC50: 93.7 µM (active)
[4]
  IC50: 18.5 µM (active)
[5]
  IC50: 1.92 µM (active)
[6]
  IC50: 20.1 µM (active)

## Cc1nnc(N/N=C/c2cccc(C(F)(F)F)c2)n1N
[7]
  AC50: 34.8 µM (active)

## O=C(Nc1ccc(Cl)cc1)c1ccc(OCC2CCCO2)cc1 (configuration not stated)
[8]
  EC50: > 12 µM (not active)
[9]
  EC50: 0.924 µM (active)
[10]
  EC50: 0.301 µM (active)

## Oc1ccc(/C=N/N2CCCCC2)c(O)c1O
[11]
  EC50: > 300 µM (inconclusive)
[12]
  EC50: 20.3 µM (active)
[13]
  IC50: > 73.5 µM (inactive)
[14]
  IC50: > 100 µM (active)
[7]
  AC50: 24.2 µM (active)

## N#Cc1ccc(C(=O)N2CCN(C(=O)/C=C/c3ccc(Br)cc3)CC2)cc1
[15]
  IC50: 0.00174 µM (active)

## Nc1nc(-c2ccccc2)cc(-c2ccccc2O)n1
[16]
  AC50: 3.55 µM (inconclusive)
[17]
  IC50: 40.6 µM (not active)

## O=C(/C=C/c1ccc(F)cc1)N1CCN(S(=O)(=O)c2cccc(Br)c2)CC1
[15]
  IC50: 0.0175 µM (active)

## COC(=O)C1=C(C)N(Cc2ccccc2C(F)(F)F)C(NCc2ccc3c(c2)OCO3)=NC1c1ccccc1 (configuration not stated)
[18]
  IC50: > 96.6 µM (inactive)

## O=C(O)CCC(=O)NN1C(=O)c2ccccc2NC1c1ccco1 (configuration not stated)
[19]
  EC50: > 69.5 µM (inactive)

## CC(C)C[C@H](NC1(C(=O)NC2CCCCC2)CCN(C)CC1)C(=O)NCC(c1ccccc1)c1ccccc1
[18]
  IC50: > 96.6 µM (inactive)

## CC(=O)Nc1ccc(NC2=Nc3ccccc3N3C2=Nc2c(c(C)nn2-c2ccccc2)C3c2ccccc2)cc1 (configuration not stated)
[20]
  IC50: 16.6 µM (active)

## Cc1ccccc1NC(=O)COC(=O)COc1ccc2ccc(=O)oc2c1
[19]
  EC50: 31.9 µM (inactive)

## N#Cc1c(N)nc(SCc2ccncc2)c(C#N)c1-c1cccs1
[21]
  EC50: 17.1 µM (active)
[11]
  EC50: > 300 µM (not active)
[12]
  EC50: > 300 µM (not active)
[22]
  EC50: 0.145 µM (active)
[23]
  EC50: > 195 µM (not active)
[17]
  IC50: 54.8 µM (not active)

## COc1cccc(C#Cc2ccc([C@@H]3[C@@H](CO)N(C(=O)C4CCC4)[C@H]3C#N)cc2)c1
[24]
  AC50: 30.9 µM (active)
[25]
  AC50: 26.8 µM (active)
[26]
  AC50: 46.8 µM (active)

## O=c1cccccc1NN=C1CCCCCC1
[8]
  EC50: 0.446 µM (active)
[9]
  EC50: 0.608 µM (active)
[27]
  EC50: < 0.1 µM (active)
[28]
  EC50: > 120 µM (not active)
[10]
  EC50: 0.385 µM (active)

## O=C(Cn1ncc(Cl)c(Cl)c1=O)N1CCOCC1
[24]
  AC50: 38 µM (active)
[25]
  AC50: 34.4 µM (active)
[26]
  AC50: 13.7 µM (active)
[29]
  AC50: 9.82 µM (active)

## COc1cc(/C=C2\SC(=S)N(Nc3ccccc3)C2=O)cc(OC)c1OC
[30]
  AC50: 15.8 µM (inconclusive)
[31]
  AC50: 7.08 µM (inconclusive)
[20]
  IC50: 2.64 µM (active)

— ChEMBL document CHEMBL1201862, “PubChem BioAssay data set” (2004)
